Measured values from patent publication US20230172961A1 (priority 2020, published 2023).
Entries after “also recorded” stand apart in the source; their conditions may differ.

Tests used:
[1] = target: SARS-CoV RdRp (nsp12, nsp7 and nsp8) (Severe acute respiratory syndrome coronavirus, UniProt P0C6X7); assay type: biochemical
[2] = target: T1, SARS-CoV-2 RdRp (nsp12, nsp7 and nsp8) (Severe acute respiratory syndrome coronavirus 2, UniProt P0DTD1); assay type: biochemical
[3] = target: Therminator II (Thermococcus sp., UniProt Q56366, A485L/D141A/E143A/Y409V); conditions: 10 µM nucleotide, DNA template and primer, MALDI-TOF MS
[4] = target: T1, SARS-CoV-2 RdRp (nsp12, nsp7 and nsp8); conditions: kinetic studies of Gordon et al 2020a, b; RDV-TP with MERS-CoV and SARS-CoV-2 RdRps; cited from earlier work
[5] = test system: Therminator IX; conditions: 10 µM nucleotide, DNA template and primer, MALDI-TOF MS
[6] = test system: Thermo Sequenase; assay: DNA polymerase extension reaction, MALDI-TOF MS, high fidelity polymerase; conditions: 10 µM nucleotide, DNA template and primer
[7] = test system: RdRp of SARS-CoV and/or SARS-CoV-2; assay type: biochemical
[8] = test system: SARS-CoV-2; conditions: hamsters; cited from earlier work
[9] = test system: SARS-CoV-2 infection of human brain organoids; conditions: cited from earlier work
[10] = target: SARS-CoV-2 RdRp (Severe acute respiratory syndrome coronavirus 2, UniProt P0DTD1); conditions: biochemical assays; cited from earlier work
[11] = target: SARS-CoV-2 exonuclease complex (nsp14/nsp10) (Severe acute respiratory syndrome coronavirus 2, UniProt P0DTD1); assay: Inhibition of SARS-CoV-2 exonuclease, MALDI-TOF MS; assay type: biochemical; conditions: 30 nM nsp14/nsp10, 37° C., 15 min
[12] = test system: SARS-CoV-2 in Calu-3 lung cells; conditions: screen of 1200 drugs; cited from earlier work
[13] = test system: SARS-CoV-2 in Vero and pulmonary epithelial cell culture; conditions: in the presence or absence of Ritonavir; cited from earlier work

Therminator II, sequence (Q56366 whole entry D141A/E143A/Y409V/A485L): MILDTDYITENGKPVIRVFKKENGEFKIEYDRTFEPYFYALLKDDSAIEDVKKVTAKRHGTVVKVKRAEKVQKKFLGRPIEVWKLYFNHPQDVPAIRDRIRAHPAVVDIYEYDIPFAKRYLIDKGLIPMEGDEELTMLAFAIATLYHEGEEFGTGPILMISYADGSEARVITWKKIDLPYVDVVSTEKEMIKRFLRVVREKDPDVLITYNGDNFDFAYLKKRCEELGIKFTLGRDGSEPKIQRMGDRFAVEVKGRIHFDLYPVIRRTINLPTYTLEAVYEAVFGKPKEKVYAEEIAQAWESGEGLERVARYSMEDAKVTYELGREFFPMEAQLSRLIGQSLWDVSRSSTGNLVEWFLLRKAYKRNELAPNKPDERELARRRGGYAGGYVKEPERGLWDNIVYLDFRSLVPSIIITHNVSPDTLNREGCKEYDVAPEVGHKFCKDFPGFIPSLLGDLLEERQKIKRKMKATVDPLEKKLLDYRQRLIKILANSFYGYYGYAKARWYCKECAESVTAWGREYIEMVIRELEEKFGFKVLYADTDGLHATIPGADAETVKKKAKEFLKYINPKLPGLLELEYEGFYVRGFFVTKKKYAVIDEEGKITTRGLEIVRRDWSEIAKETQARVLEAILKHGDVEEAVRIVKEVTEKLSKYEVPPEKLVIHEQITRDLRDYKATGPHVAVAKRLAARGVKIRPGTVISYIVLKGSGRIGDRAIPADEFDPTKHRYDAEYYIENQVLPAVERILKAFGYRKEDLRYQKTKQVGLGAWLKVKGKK

## 2′-fluoro-2′-methyl-UTP [2′-F,Me-UTP]
[1]
  termination of the polymerase reaction: permanent terminators
[2]
  incorporation efficiency: efficient substrates of the RdRp
  termination of the polymerase reaction: single nucleotide (2′-F,Me-UMP) primer extension product
[3]
  incorporation and block of further nucleotide incorporation: able to be incorporated and block further nucleotide incorporation
[4]
  incorporation efficiency relative to the natural nucleotide: lower incorporation efficiency than the natural nucleotide
[5]
  incorporation and block of further nucleotide incorporation: able to be incorporated and block further nucleotide incorporation
[6]
  incorporation and block of further nucleotide incorporation: no incorporation

## O=c1ccn([C@@H]2O[C@H](COP(=O)(O)OP(=O)(O)OP(=O)(O)O)[C@@H](O)[C@H]2F)c(=O)[nH]1 [2′-F-dUTP, 2′-fluoro-2′-deoxyuridine-5′-triphosphate]
[1]
  incorporation efficiency: incorporated very efficiently
[2]
  relative incorporation efficiency in equimolar combinations: incorporated far better than 2′-O-Me-UTP and dUTP
  termination of the polymerase reaction in equimolar combinations: not terminators of the polymerase reaction
[7]
  termination of the polymerase reaction (summary of the 11 tested): did not terminate the polymerase reaction

## N[C@@H]1[C@H](O)[C@@H](COP(=O)(O)OP(=O)(O)OP(=O)(O)O)O[C@H]1n1ccc(=O)[nH]c1=O [2′-NH2-dUTP, 2′-amino-2′-deoxyuridine-5′-triphosphate]
[2]
  relative incorporation efficiency in equimolar combinations: more efficiently incorporated than 2′-O-Me-UTP and dUTP
  termination of the polymerase reaction in equimolar combinations: not terminators of the polymerase reaction
[7]
  termination of the polymerase reaction (summary of the 11 tested): did not terminate the polymerase reaction

## CO[C@@H]1[C@H](O)[C@@H](COP(=O)(O)OP(=O)(O)OP(=O)(O)O)O[C@H]1n1ccc(=O)[nH]c1=O [2′-OMe-UTP, 2′-O-methyluridine-5′-triphosphate]
[1]
  termination of the polymerase reaction: significant polymerase reaction termination
[2]
  termination of the polymerase reaction: significant termination after the first incorporation step
[7]
  termination of the polymerase reaction (summary of the 11 tested): incomplete or delayed termination

## Cc1cn([C@H]2C[C@H](N=[N+]=[N-])[C@@H](COP(=O)(O)OP(=O)(O)OP(=O)(O)O)O2)c(=O)[nH]c1=O [3′-N3-dTTP, 3′-N3-3′-deoxythymidine triphosphate]
[1]
  termination of the polymerase reaction: permanent terminators
[2]
  incorporation efficiency: incorporation efficiency was lower than for 2′-F,Me-UTP and 3′-F-dTTP
  termination of the polymerase reaction: no evidence of further incorporation

## CO[C@H]1[C@@H](O)[C@H](n2ccc(=O)[nH]c2=O)O[C@@H]1COP(=O)(O)OP(=O)(O)OP(=O)(O)O [3′-OMe-UTP, 3′-0-methyluridine-5′-triphosphate]
[1]
  incorporation efficiency: lower incorporation efficiency
  termination of the polymerase reaction: obligate terminator
[7]
  termination of the polymerase reaction (summary of the 11 tested): complete termination of the polymerase reaction

## Nc1nc(O)c2ncn(COC(CO)COP(=O)(O)OP(=O)(O)OP(=O)(O)O)c2n1 (stereo not drawn) [Gan-TP, Ganciclovir 5′-triphosphate]
[1]
  termination of the polymerase reaction: terminate the polymerase reaction
[2]
  termination of the polymerase reaction: complete termination; also recorded: better terminators than Ent-TP
[7]
  termination of the polymerase reaction (summary of the 11 tested): complete termination of the polymerase reaction

## N#C[C@@]1(c2ccc3c(N)ncnn23)O[C@H](COP(=O)(O)OP(=O)(O)OP(=O)(O)O)[C@@H](O)[C@H]1O [RDV-TP]
[4]
  incorporation efficiency relative to the natural nucleotide: higher incorporation efficiency than ATP

## CNC(=C[N+](=O)[O-])NCCSCc1ccc(CN(C)C)o1.O=C([O-])CC(O)(CC(=O)[O-])C(=O)[O-].[Bi+3] [Ranitidine bismuth citrate]
[8]
  viral loads in the respiratory tract: decrease viral loads in the respiratory tract of hamsters

## CC(C)OC(=O)[C@H](C)N[P@](=O)(OC[C@H]1O[C@@H](n2ccc(=O)[nH]c2=O)[C@](C)(F)[C@@H]1O)Oc1ccccc1 [Sofosbuvir]
[9]
  protection from SARS-CoV-2 infection: protect human brain organoids from SARS-CoV-2 infection

## Cc1cn([C@H]2C=C[C@@H](COP(=O)(O)OP(=O)(O)OP(=O)(O)O)O2)c(=O)[nH]c1=O [Sta-TP, Stavudine 5′-triphosphate]
[2]
  incorporation efficiency: very efficiently incorporated
  termination of the polymerase reaction: complete termination of the polymerase reaction
  termination of the polymerase reaction at 10-fold lower concentration: resulted in termination of the polymerase reaction
[7]
  termination of the polymerase reaction (summary of the 11 tested): complete termination of the polymerase reaction

## Cc1ccc(C(=O)Nc2ccc(S(=O)(=O)O)c3cc(S(=O)(=O)O)cc(S(=O)(=O)O)c23)cc1NC(=O)c1cccc(NC(=O)Nc2cccc(C(=O)Nc3cc(C(=O)Nc4ccc(S(=O)(=O)O)c5cc(S(=O)(=O)O)cc(S(=O)(=O)O)c45)ccc3C)c2)c1 [Suramin]
[10]
  potency relative to Remdesivir: 20 ×

## COC[C@H]1C[C@@H](c2nc(-c3ccc4c(c3)COc3cc5c(ccc6nc([C@@H]7CC[C@H](C)N7C(=O)[C@@H](NC(=O)OC)C(C)C)[nH]c65)cc3-4)c[nH]2)N(C(=O)[C@H](NC(=O)OC)c2ccccc2)C1 [Velpatasvir]
[11]; 50 µM inhibitor
  inhibition of exonuclease activity: shows inhibition of the exonuclease activity
[11]; 150 µM inhibitor
  inhibition of exonuclease activity: increased inhibition of exonuclease activity
[12]
  synergism with Remdesivir in inhibiting viral production: strongest effects

## COC(=O)N[C@H](C(=O)N[C@@H](Cc1ccccc1)[C@@H](O)CN(Cc1ccc(-c2ccccn2)cc1)NC(=O)[C@@H](NC(=O)OC)C(C)(C)C)C(C)(C)C [atazanavir]
[13]
  inhibition of viral production: inhibits viral production

## Cc1cn([C@H]2C[C@H](O)[C@@H](COP(=O)(O)OP(=O)(O)OP(=O)(O)O)O2)c(=O)[nH]c1=O [dTTP]
[3]
  incorporation and block of further nucleotide incorporation: incorporation continued past the first A in the template
[5]
  incorporation and block of further nucleotide incorporation: incorporation continued past the first A in the template
[6]
  incorporation and block of further nucleotide incorporation: incorporation continued past the first A in the template

## Cidofovir diphosphate [Cid-DP]
[1]
  termination of the polymerase reaction: terminate the polymerase reaction
[2]
  termination of the polymerase reaction: delayed termination
  termination of the polymerase reaction at 10-fold lower concentration: resulted in termination of the polymerase reaction
[7]
  termination of the polymerase reaction (summary of the 11 tested): incomplete or delayed termination

## biotin-16-aminoallyl-2′-deoxyuridine-5′-triphosphate [Biotin-dUTP]
[2]
  relative incorporation efficiency in equimolar combinations: lower incorporation efficiency than the natural UTP
  termination of the polymerase reaction: terminator of the polymerase reaction
[7]
  termination of the polymerase reaction (summary of the 11 tested): complete termination of the polymerase reaction

## desthiobiotin-16-aminoallyl-uridine-5′-triphosphate [Desthio-UTP]
[2]
  incorporation efficiency: incorporated
  termination of the polymerase reaction: does not terminate the polymerase reaction
[7]
  termination of the polymerase reaction (summary of the 11 tested): did not terminate the polymerase reaction
